Experiments:
[1] = tested on: MCF-7 cells (breast cancer cells expressing estrogen receptors); test: Anti-proliferative effect, [3H]-thymidine incorporation into DNA; type: cell-based, human; settings: line MCF-7, increasing concentrations, up to 72 hours, FIG. 1
Description: (§1) The activity of the tetramerous derivative has been evaluated both in breast cancer cells grown in laboratory expressing estrogen receptors (line MCF-7) and in cells which are negative for said receptors (line MDA-MB-234).
(§2) MCF-7 and MDA-MB-234 cells have been grown in laboratory in a DMEM medium added with 10% of bovine fetal serum, 1% of a penicillin-streptomycin solution, 1% of a solution of non-essential amino acids, 2 mM glutamine and for MCF-7 also with 10 ug/ml of insulin. For the tests the cells are taken and used in their logarithmic growth phase, suspending them again the same fresh medium and exposing them to the tetramerous derivative up to 72 hours at 37° C. in an atmosphere with 5% of CO2. Before the treatment the cells are grown for some hours so as to adhere well to the plastic and start proliferating. In the tests concerning the evaluation of the anti-proliferative activity the synthesis of DNA is evaluated by adding to the cultures 3 μCi/ml of [3H]-thymidine 6 hours before the end of the treatment.
(§3) The cells are exposed during the culture to increasing concentrations of tetramerous derivative, then evaluating the degree of inhibition of their proliferation by incorporating into the DNA tritium-added thymidine (Cover C. M. et al., 1998, Journal of Biological Chemistry no. 273, page 3838-3847).

[2] = tested on: MDA-MB-234 cells (negative for estrogen receptors); test: as above; type: cell-based, human; settings: line MDA-MB-234, increasing concentrations, up to 72 hours, FIG. 2
Description: as §1, §2, §3

MCF-7 cells = test: Cytotoxicity, vital cell count with trypan blue; type: cell-based, human
Description: (§4) In a second set of tests the activity of the tetramerous derivative on the two cell lines has been evaluated as cytotoxicity using a method (Magnani M. et al., 1995, Biochemical Journal no. 312, page 115-123) which allows to recognize vital from dead cells.
(§5) MCF-7 and MDA-MB-234 cells have been grown as previously described. Then, after 24 and after 72 hours of exposition to the tetramerous derivative they are taken and counted in duplicate in a hemocytometer using trypan blue dye to exclude dead cells.

MDA-MB-234 cells = test: Cytotoxicity, vital cell count with trypan blue; type: cell-based, human; settings: MDA-MB-234, FIG. 4
Description: as §4, §5

[3] = tested on: cyclin-dependent kinase cdk6; test: Western blot, level of expression of cdk6 in MCF-7; type: cell-based, human; settings: FIG. 6
Source text: (§6) SDS-PAGE (Laemmli U.K. 1970, Nature 227, 680-685) and Western Blot (Towbin H., Staehelin T., Gordon J. 1979, Proc. Natl:Acad. Sci. USA 76, 4350-4354) techniques have been used to analyze the expression of proteins known as fundamental targets (markers) in the control of the cellular cycle, whose modifications often lead to an uncontrolled cell proliferation: cyclin-dependent kinase cdk6 (Cover C. M., et al, 1998, J. Biol. Chem. 273, 3838-3847), inhibitor p27 (Wang X., et al., 1997, Oncogene 15, 2991-2997; Vidal A., Koff A. 2000, Gene 247, 1-15) and retinoblastoma Rb (Dyson N. 1998, Genes & Development 12, 2245-2262; Guardavaccaro D., et al., 2000, Mol. Cell. Biol. 20 (5), 1797-1815).
(§7) After growing the cells as previously described, the cell cultures undergo the action of increasing doses of tetramerous derivative. Then culture samples are taken and the cells are lysated with B buffer (Hepes 20 mM pH 7.5, NaCl 420 mM, MgCl2 1.5 mM, EDTA 0.2 mM, glycerol 25%) in presence of antiproteolytic agents Nonidet P40 0.5% (v/v), kept under ice for 20 minutes and centrifuged at 12,000 rpm for 10 minutes at 4° C.
(§8) The cell lysate (supernatant liquor) is then diluted 1:1 with Sample Buffer 2× and charged into SDS-PAGE at 12% of acrylamide following Laemmli's method (Laemmli U.K. 1970, Nature 227, 680-685). […]

inhibitor p27 [4] = test: Western blot, level of protein p27 in MCF-7; type: cell-based, human; settings: MCF-7, same concentrations as for cdk6, FIG. 7
Source text: as §6, §7, §8

retinoblastoma Rb = test: Western blot, phosphorylation of Rb factor (pRb); type: cell-based; settings: Homo sapiens, FIG. 9
Source text: as §6, §7, §8

enzyme cdk6 = test: Western blot, cdk6 in MDA-MB-234; type: cell-based, human
Source text: as §6
as §7, with “C. […]” for “C.”
(§9) Said markers are then evaluated as previously described on estrogen-negative cell line MDA-MB-234.

inhibitor p27 [5] = test: Western blot, p27 in MDA-MB-234; type: cell-based, human
Source text: as §6
as §7, with “C. […]” for “C.”
as §9

c1ccc2c3c([nH]c2c1)Cc1c([nH]c2ccccc12)Cc1c([nH]c2ccccc12)Cc1c([nH]c2ccccc12)C3 [tetramerous derivative]
inhibition of cell proliferation [1]: inhibits in a dose-dependent way
inhibition of cell proliferation [2]: inhibits in a dose-dependent way
toxicity (percentage of vital cells) in relation to time of administration (MCF-7 cells; MCF-7, 24 and 72 hours, FIG. 5): time-dependent
toxicity (percentage of vital cells) in relation to amount administered (MCF-7 cells; MCF-7, FIG. 3): dose-dependent
toxicity (percentage of vital cells) in relation to amount administered (MDA-MB-234 cells): dose-dependent
level of expression of cdk6 ([3]; MCF-7, 15 μM): great reduction
level of expression of cdk6 ([3]; MCF-7, 50 μM): sudden decrease
level of protein p27 (inhibitor p27 [4]): increases
inhibition at 30 µM (retinoblastoma Rb): 60%
level of enzyme cdk6 (enzyme cdk6): reduction
level of inhibitor p27 (inhibitor p27 [5]): increase

From patent US7645788B2, “Tetramerous derivative of indole-3-carbinol with anti-carcinogenic activity and method of synthesis of said derivative” (Universita' Degli Studi Di Urbino, priority 2001, dated 2010)
